Assay results reported in patent US12281121B2, “N-containing heteroaryl derivative and pharmaceutical composition comprising same as active ingredient for prevention or treatment of cancer” (VORONOI Inc., priority 2019, dated 2025).

Legend:
[1] = test system: Ba/F3 CCDC6-RET (WT) cells; assay: Cell proliferation inhibition, CellTiter-Glo; type: cell-based; conditions: BaF3/CCDC6-RET, 72 hours
Protocol: (§1) Among lung cancer cell lines, which express RET fusion genes, LC-2/ad cells were cultured after adding 10% FBS (HyClone) to RPMI:F12 (1:1) (Invitrogen), and F-12 (Invitrogen) supplemented with 10% FBS was used for TT cells. RPMI-1640 supplemented with 10% FBS and 5 ng/ml IL-3 (R&D Systems) was used for Ba/F3 cells. Transduced Ba/F3 cells were cultured by adding 1 ug/ml puromycin (Invitrogen) to the same medium. 24 hours before cells were treated with the compound, 3000 to 5000 cells were aliquoted into each well of a white clear bottom 96 well plate (Corning). The compound was diluted in DMSO (3-fold dilution, a total of 12 concentrations) and the compound was injected by 0.5 μl such that the final concentration was 0.3 nM to 50 μM. For the measurement of living cells, 72 hours after the compound treatment, the cells were stored at room temperature for 10 minutes using a CellTiter-Glo luminescent cell-viability agent (Promega), and then the luminescence intensity was measured using a reader (SynergyNeo, Biotek). Each experiment was repeated in triplicate. The result value was calculated by the cell growth ratio (%) compared to the control. A graph was drawn using the GraphPad Prism version 5.0 program, and a GI50 (nM) value was calculated.
(§2) In the cell assay column, LC-2/ad (with CCDC6-RET gene) is a lung cancer cell line, a TT cell line ([…]) is a thyroid cancer cell line, Ba/F3 CCDC6-RET (WT), Ba/F3 KIF5B-RET (WT), and Ba/F3 KIF5B-RET (V804M) are cells in which disease-related traits (CCDC6-RET, KIF5B-RET, and KIF5B-RET (V804M)) are introduced into Ba/F3 cells, and Ba/F3 (naive) is a cell which is not transduced.

[2] = test system: Ba/F3 KIF5B-RET (WT) cells; assay: Cell proliferation inhibition, CellTiter-Glo; type: cell-based; conditions: Mus musculus, BaF3, 72 hours
Protocol: as §1, §2

[3] = test system: Ba/F3 KIF5B-RET (V804M) cells; assay: Cell proliferation inhibition, CellTiter-Glo; type: cell-based; conditions: Mus musculus, BaF3, 72 hours
Protocol: as §1, §2

Ba/F3 (naive) cells = assay: Cell proliferation inhibition, CellTiter-Glo; type: cell-based; conditions: Mus musculus, BaF3; Ba/F3 not transduced, 72 hours
Protocol: as §1, §2

RET (WT) = biological target: T1, RET (WT) (Homo sapiens, UniProt P07949); assay: RET enzyme inhibitory ability, ADP-Glo kinase assay; type: biochemical; conditions: ATP 10 μM, 25° C., 1 hour
T1 construct: human RET (658-end, SIGNALCHEM); purchased SIGNALCHEM
T1 sequence (P07949 658-1114 limits assumed): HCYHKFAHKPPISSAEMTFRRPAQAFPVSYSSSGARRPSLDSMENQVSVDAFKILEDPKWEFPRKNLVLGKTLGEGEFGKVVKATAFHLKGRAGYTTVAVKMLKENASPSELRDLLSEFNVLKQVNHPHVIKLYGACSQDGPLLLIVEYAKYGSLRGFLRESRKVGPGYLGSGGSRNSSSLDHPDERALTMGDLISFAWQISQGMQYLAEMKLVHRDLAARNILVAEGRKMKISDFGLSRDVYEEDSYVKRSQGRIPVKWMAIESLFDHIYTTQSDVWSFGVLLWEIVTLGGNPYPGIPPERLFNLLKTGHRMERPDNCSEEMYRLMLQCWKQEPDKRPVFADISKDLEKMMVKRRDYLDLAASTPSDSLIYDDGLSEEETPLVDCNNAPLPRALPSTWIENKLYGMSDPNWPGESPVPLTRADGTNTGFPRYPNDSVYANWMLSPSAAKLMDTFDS
Protocol: The Example compound was reacted with a purified human RET (658-end, SIGNALCHEM) enzyme to evaluate the enzyme inhibitory ability by the following method. As a reaction buffer, a composition of 40 mM Tris-HCl pH 7.4, 20 mM MgCl2, 0.5 mg/mL BSA, and 50 μM DTT was used, and all experimental materials were reacted on the reaction buffer. After the human RET (658-end, 0.8 ng) enzyme was reacted with purified ATP (10 μM) and a specific substrate solution at 25° C. for 1 hour during the experiment, the enzyme activity was confirmed using in vitro ADP-Glo™ kinase assay (Promega). Luminescence was measured by reacting the enzyme activity reaction solution, the ADP-Glo reaction solution, and the enzyme activity detection solution at a ratio of 2:2:1. The degree of inhibition of enzyme activity according to the treatment concentration of each compound was calculated based on the […] of the enzyme activity of a solvent control group in which a compound was not treated, and in this case, the concentration of each compound which suppresses the […] enzyme activity by 50% was determined as an IC50 (nM) value. The IC50 (nM) of each compound was determined by 3 datasets and obtained using Prism (version 7.01, GraphPad) software.
In the enzyme assay column, RET (WT) is a non-mutated form, RET (V804M) is a mutated form in which the V amino acid at position 804 of the RET is substituted with M, and CCDC6-RET is a form in which the RET (WT) gene and CCDC6 gene are fused.

| SMILES | GI50 [1] [nM] | GI50 [2] [nM] | GI50 [3] [nM] | GI50 (Ba/F3 (naive) cells) [nM] | IC50 (RET (WT)) [nM] |
| --- | --- | --- | --- | --- | --- |
| COc1cnc(CN2C3CC2CN(c2ccc(-c4nc(Nc5cc(C)[nH]n5)c5ccccc5n4)cn2)C3)cn1 [Example 17, 2-(6-(6-((5-methoxypyrazin-2-yl)methyl)-3,6-diazabicyclo [3.1.1]heptan-3-yl)pyridin-3-yl)-N-(5-methyl-1H-pyrazol-3-yl)quinazolin-4-amine] | 46 | 10 | 7 | 867 | 11 |
| Cc1cc(Nc2nc(-c3ccc(N4CC5CC(C4)N5Cc4ccc5ncccc5c4)nc3)nc3ccccc23)n[nH]1 [Example 18, N-(5-methyl-1H-pyrazol-3-yl)-2-(6-(6-(quinolin-6-ylmethyl)-3,6-diazabicyclo [3.1.1]heptan-3-yl)pyridin-3-yl)quinazolin-4-amine] | 67 | 28 | 25 | 4600 | 34 |
| Cc1csc(CN2C3CC2CN(c2ccc(-c4nc(Nc5cc(C)[nH]n5)c5ccccc5n4)cn2)C3)n1 [Example 19, N-(5-methyl-1H-pyrazol-3-yl)-2-(6-(6-((4-methylthiazol-2-yl)methyl)-3,6-diazabicyclo [3.1.1]heptan-3-yl)pyridin-3-yl)quinazolin-4-amine] | 120 | 29 | 28 | 1230 | 40 |
| Cc1cc(Nc2nc(-c3ccc(N4CC5CC(C4)N5Cc4ccc(N(C)C)nc4)nc3)nc3ccccc23)n[nH]1 [Example 20, 2-(6-(6-((6-(di-methylamino)py-ridin-3-yl)meth-yl)-3,6-diazabicyclo [3.1.1]heptan-3-yl)pyridin-3-yl)-N-(5-methyl-1H-pyrazol-3-yl)quinazolin-4-amine] | 44 | 11 | 6 | 2780 | 14 |
| Cc1cc(Nc2nc(-c3ccc(N4CC5CC(C4)N5Cc4ccc(F)cc4)nc3)nc3ccccc23)n[nH]1 [Example 22, 2-(6-(6-(4-fluorobenzyl)-3,6-diazabicyclo [3.1.1]heptan-3-yl)pyridin-3-yl)-N-(5-methyl-1H-pyrazol-3-yl)quinazolin-4-amine] | 55 | 20 | 6 | 1220 | 20 |
| Cc1cc(Nc2nc(-c3ccc(N4CC5CC(C4)N5Cc4ccc(F)nc4)nc3)nc3ccccc23)n[nH]1 [Example 23, 2-(6-(6-((6-fluoropyridin-3-yl)methyl)-3,6-diazabicyclo [3.1.1]heptan-3-yl)pyridin-3-yl)-N-(5-methyl-1H-pyrazol-3-yl)quinazolin-4-amine] | 57 | 14 | 19 | 1300 | 15 |
| CCOc1ccc(CN2C3CC2CN(c2ccc(-c4nc(Nc5cc(C)[nH]n5)c5ccccc5n4)cn2)C3)cn1 [Example 24, 2-(6-(6-((6-ethoxypyridin-3-yl)methyl)-3,6-diazabicyclo [3.1.1]heptan-3-yl)pyridin-3-yl)-N-(5-methyl-1H-pyrazol-3-yl)quinazolin-4-amine] | 53 | 12 | 10 | 4320 | 14 |
| Cc1ncc(CN2C3CC2CN(c2ccc(-c4nc(Nc5cc(C)[nH]n5)c5ccccc5n4)cn2)C3)cn1 [Example 25, N-(5-methyl-1H-pyrazol-3-yl)-2-(6-(6-((2-methylpyrimidin-5-yl)methyl)-3,6-diazabicyclo [3.1.1]heptan-3-yl)pyridin-3-yl)quinazolin-4-amine] | 50 | 14 | 21 | 1650 | 7 |
| Cc1cnc(CN2C3CC2CN(c2ccc(-c4nc(Nc5cc(C)[nH]n5)c5ccccc5n4)cn2)C3)cn1 [Example 26, N-(5-methyl-1H-pyrazol-3-yl)-2-(6-(6-((5-methylpyrazin-2-yl)methyl)-3,6-diazabicyclo [3.1.1]heptan-3-yl)pyridin-3-yl)quinazolin-4-amine] | 37 | 10 | 10 | 973 | 7 |
| COc1ccc(CN2CCN(c3ccc(-c4nc(Nc5cc(C)[nH]n5)c5ccccc5n4)cn3)CC2(C)C)cn1 [Example 29, 2-(6-(4-((6-meth-oxypyridin-3-yl)methyl)-3,3-dimethyl-piperazin-1-yl)pyridin-3-yl)-N-(5-methyl-1H-pyrazol-3-yl)quinazolin-4-amine] | 454 | 164 | 89 | 6320 | 123 |
| COc1ccc(CN2CCCN(c3ccc(-c4nc(Nc5cc(C)[nH]n5)c5ccccc5n4)cn3)CC2)cn1 [Example 30, 2-(6-(4-((6-methoxypyridin-3-yl)methyl)-1,4-diazepan-1-yl)pyridin-3-yl)-N-(5-methyl-1H-pyrazol-3-yl)quinazolin-4-amine] | 99 | 44 | 25 | 1130 | 34 |
| COc1ccc(CN2C[C@@H]3C[C@H]2CN3c2ccc(-c3nc(Nc4cc(C)[nH]n4)c4ccccc4n3)cn2)cn1 [Example 31, 2-(6-((1S,4S)-5-((6-methoxy-pyridin-3-yl)methyl)-2,5-diazabicyclo [2.2.1]heptan-2-yl)pyridin-3-yl)-N-(5-methyl-1H-pyrazol-3-yl)quinazolin-4-amine] | 66 | 18 | 12 | 1680 | 25 |
| COc1ccc(CN2C[C@H]3C[C@@H]2CN3c2ccc(-c3nc(Nc4cc(C)[nH]n4)c4ccccc4n3)cn2)cn1 [Example 34, 2-(6-((1R,4R)-5-((6-methoxy-pyridin-3-yl)methyl)-2,5-diazabicyclo [2.2.1]heptan-2-yl)pyridin-3-yl)-N-(5-methyl-1H-pyrazol-3-yl)quinazolin-4-amine] | 65 | 19 | 20 | 2590 | 16 |
| COc1ccc(CN2CCN(c3ccc(-c4nc(Nc5cc(C)[nH]n5)c5ccccc5n4)cn3)C[C@H]2C)cn1 [Example 36, (R)-2-(6-(4-((6-methoxypyridin-3-yl)methyl)-3-methylpiperazin-1-yl)pyridin-3-yl)-N-(5-methyl-1H-pyrazol-3-yl)quinazolin-4-amine] | 259 | 63 | 32 | 4800 | 59 |
| COc1ccc(CN2CCN(c3ccc(-c4nc(Nc5cc(C)[nH]n5)c5ccccc5n4)cn3)CC23CC3)cn1 [Example 37, 2-(6-(4-((6-methoxypyridin-3-yl)methyl)-4,7-diazaspiro[2.5]oc-tan-7-yl)pyridin-3-yl)-N-(5-meth-yl-1H-pyrazol-3-yl)quinazolin-4-amine] | 305 | 107 | 50 | 4650 | 219 |
